Experimental findings from patent US9808527B2, “Methods and compositions for treating HIV infections” (priority 2006, dated 2017) are described below.

In data set [1] the test system is HIV-1RTV5μM. The experiment in a line: microbe, parasite or virus in culture. Type of data set: cell-based. Conditions: for IC50: Human immunodeficiency virus 1, MT4, read-out: IC50 against HIV-1RTV5μM; for fold change of IC50, HIV-1RTV5μM: compared to wild-type HIV-1NL4-3. As for the experimental part:
(§1) Drug susceptibility assay. The susceptibility of HIV-1LAI, HIV-2EHO, HIV-2ROD, to various drugs and the cytotoxicity of those drugs was determined by using the MTT assay. Briefly, MT-2 cells (2×10^4/mL) were exposed to 100 TCID50s (50% tissue culture infectious doses) of HIV-1LAI, HIV-2EHO, or HIV-2ROD in the presence or absence of various concentrations of drugs in 96-well microculture plates and were incubated at 37° C. for 7 days. After 100 μL of the medium was removed from each well, 3-(4,5-dimethylthiazol-2-yl)-2,5-diphenyltetrazolium bromide (MTT) solution (10 μL, 7.5 mg/mL in phosphate-buffered saline) was added to each well in the plate, followed by incubation at 37° C. for 4 hours. […] All assays were performed in duplicate or triplicate. To determine the sensitivity of HIV-1Ba-L, HIV-1ERS104 pre, and clinical multi-drug-resistant HIV-1 isolates and different subtypes of HIV-1 isolates to drugs, phytohemagglutinin-activated peripheral blood mononuclear cells (PHA-PBMs; 10^6/mL) were exposed to 50 TCID50 (50% tissue infectious dose) of each HIV-1 isolate and cultured in the presence or absence of various concentrations of drugs in 10-fold serial dilutions in 96-well microtiter culture plates. To determine the drug susceptibility of certain laboratory HIV-1 strains (HIV-1NL4-3), MT-4 cells were used as target cells. MT-4 cells (10^5/mL) were exposed to 100 TCID50 of wild type HIV-1NL4-3 and PI-resistant HIV-1NL4-3 in the presence or absence of various concentrations of drugs and were incubated at 37° C. On day 7 of culture, the supernatant was harvested and the amount of p24 Gag protein was determined by using a fully automated chemiluminescent enzyme immunoassay system (Lumipulse F; Fujirebio Inc., Tokyo, Japan) (22). […] All assays were performed in duplicate or triplicate.
(§2) Generation of PI-resistant HIV-1 in vitro. MT-4 cells (10^5/mL) were exposed to HIV-1NL4-3 (500 TCID50) and cultured in the presence of various PIs at an initial concentration of its IC50 values. Viral replication was monitored by determination of the amount of p24 Gag produced by MT-4 cells. The culture supernatants were harvested on day 7 and used to infect fresh MT-4 cells for the next round of culture in the presence of increasing concentrations of each drug. […] Proviral DNA samples obtained from the lysates of infected cells were subjected to nucleotide sequencing. This drug selection procedure was carried out until the drug concentration reached 1 or 5 μM.

In data set [2] the test system is HIV-1NFV5μM. The experiment in a line: microbe, parasite or virus in culture. In kind it is cell-based. To be noted: for IC50: Human immunodeficiency virus 1, MT4, read-out: IC50 against HIV-1NFV5μM; for fold change of IC50, HIV-1NFV5μM: compared to wild-type HIV-1NL4-3. As for the experimental part:
as §1, §2

The subject of data set [3] is HIV-1LPV1μM. Nature of the data set: microbe, parasite or virus in culture. Type of data set: cell-based. Conditions: for IC50: Human immunodeficiency virus 1, MT4, read-out: IC50 against HIV-1LPV1μM; for fold change of IC50, HIV-1LPV1μM: compared to wild-type HIV-1NL4-3. As to the method: as §1, §2
Data set [4] concerns HIV-1APV5μM. Nature of the data set: microbe, parasite or virus in culture. Type of data set: cell-based. Conditions: for IC50: Human immunodeficiency virus 1, MT4, read-out: IC50 against HIV-1APV5μM; for fold change of IC50, HIV-1APV5μM: compared to wild-type HIV-1NL4-3. As to the method:
as §1, §2

Data set [5] deals with HIV-1SQV5μM. Nature of the data set: microbe, parasite or virus in culture. To be noted: for IC50: Human immunodeficiency virus 1, MT4, read-out: IC50 against HIV-1SQV5μM; for fold change of IC50, HIV-1SQV5μM: compared to wild-type HIV-1NL4-3. In kind it is cell-based. As for the experimental part: as §1, §2
Data set [6] deals with HIV-1IDV5μM. Nature of the data set: microbe, parasite or virus in culture. In kind it is cell-based. Conditions: for IC50: Human immunodeficiency virus 1, MT4, read-out: IC50 against HIV-1IDV5μM; for fold change of IC50, HIV-1IDV5μM: compared to wild-type HIV-1NL4-3. As to the method: as §1, §2
For data set [7], the target named is T1, HIV-1 protease (Human immunodeficiency virus type 1 group M subtype B, UniProt P04585, C555A/C583A/L521I/L551I/Q495K/V491I).
T1 construct: Wild-type PR at final concentrations of 160-190 nM were added
Nature of the data set: biochemical. Type of data set: biochemical. An excerpt: Enzyme kinetics. The chromogenic substrate Lys-Ala-Arg-Val-Nle-p-nitroPhe-Glu-Ala-Nle-amide (Sigma, St. Louis, Mo.) was used to determine the kinetic parameters (Kovalevsky et al. J Mol Biol 363(1):161-173 (2006), Ghosh et al. J Med Chem 49(17):5252-5261 (2006)). […] The kcat and Km values were obtained employing standard data fitting techniques for a reaction obeying Michaelis-Menten kinetics. The data curves were fitted using SigmaPlot 8.0.2 (SPSS Inc., Chicago, Ill.). The active enzyme concentrations were calculated from the intercept of the linear fit to the IC50 versus [S] plots with the IC50 axis. The Ki values were obtained from the IC50 values estimated from an inhibitor dose-response curve with the spectroscopic assay using the equation Ki=(IC50-[E]/2)/(1+[S]/Km), where [E] and [S] are the PR and substrate concentrations, respectively (Maibaum & Rich J Med Chem 31(34):625-629 (1988)). The Ki values were measured at four to five substrate concentrations. The measurement was repeated at least three times to produce the average values.

Data set [8] is described as follows: Cytotoxicity by MTT assay. Type of data set: cell-based, Human. Conditions: human. As for the experimental part: as §1
Background: Formazan colour is commonly taken as a measure of viable cells.

In data set [9] the test system is HIV-2 strains (HIV-2EHO and HIV-2ROD). The experiment in a line: MTT assay, MT-2 cells, HIV-2 strains compared with HIV-1LAI. Type of data set: cell-based. As to the method:
(§3) Drug susceptibility assay. The susceptibility of HIV-1LAI, HIV-2EHO, HIV-2ROD, to various drugs and the cytotoxicity of those drugs was determined by using the MTT assay. Briefly, MT-2 cells (2×10^4/mL) were exposed to 100 TCID50s (50% tissue culture infectious doses) of HIV-1LAI, HIV-2EHO, or HIV-2ROD in the presence or absence of various concentrations of drugs in 96-well microculture plates and were incubated at 37° C. for 7 days. After 100 μL of the medium was removed from each well, 3-(4,5-dimethylthiazol-2-yl)-2,5-diphenyltetrazolium bromide (MTT) solution (10 μL, 7.5 mg/mL in phosphate-buffered saline) was added to each well in the plate, followed by incubation at 37° C. for 4 hours. […] All assays were performed in duplicate or triplicate. […] On day 7 of culture, the supernatant was harvested and the amount of p24 Gag protein was determined by using a fully automated chemiluminescent enzyme immunoassay system (Lumipulse F; Fujirebio Inc., Tokyo, Japan) (22). […]

Data set [10] relates to HIV-1, HIV-2, and primary HIV-1 strains of different subtypes. Nature of the data set: Antiviral activity over Tables 1, 2 and 5 (summary). In kind it is cell-based. As to the method: as §3
Data set [11] has as its system HIV-1NL4-3. The experiment in a line: In vitro selection of HIV-1 variants resistant to GRL-98065. In kind it is cell-based.
Excerpt: as §2
The protease-encoding region of the proviral DNA isolated from infected MT-4 cells was cloned and sequenced at passages 5, 10, 15, 20, 25, 30, 33, and 40. […] Met46 is located on the flap region of the enzyme.

Data set [12] deals with HIV-1 isolates of all subtypes (subtypes A, B, C, and E). The experiment in a line: p24 assay, PHA-PBMs, panel of HIV-1 isolates of subtypes A, B, C, and E. Type of data set: cell-based. Conditions: Human immunodeficiency virus 1, read-out: IC50 against HIV-1 isolates of subtypes A, B, C, and E. As for the experimental part:
as §3
The IC50 values were determined by using PHA-PBMs as target cells and the inhibition of p24 Gag protein production by each drug was used as an endpoint. […]

Each structure is given as a SMILES string.

The IC50 is the concentration at which inhibition is half-maximal. A word on the Ki: it is a measure of affinity in units of concentration, obtained from inhibition or displacement. The low end stands for tighter binding, the high end for weaker binding. Usually CC50 stands for the concentration giving 50% cytotoxicity.

On to `CC(C)CN(C[C@@H](O)[C@H](Cc1ccccc1)NC(=O)O[C@H]1CCOC1)S(=O)(=O)c1ccc(N)cc1` [APV, Amprenavir], for which the IC50 in data set [1] is 280 ± 20 nM; in [2], 60 ± 4 nM; in data set [3], 310 ± 20 nM; in data set [4] it was over 1000 nM; in [5], 330 ± 30 nM; in data set [6], 170 ± 10 nM.

In the case of `CC(C)(C)NC(=O)[C@@H]1C[C@@H]2CCCC[C@@H]2CN1C[C@@H](O)[C@H](Cc1ccccc1)NC(=O)[C@H](CC(N)=O)NC(=O)c1ccc2ccccc2n1` [SQV, Saquinavir], in data set [1], the IC50 was determined as 10 ± 8 nM and the “fold change of IC50, HIV-1RTV5μM” value turned out to be 1. Further, in [2], the IC50 came out at 24 ± 8 nM and the “fold change of IC50, HIV-1NFV5μM” value is 3. In [3], the IC50 stood at 32 ± 2 nM and the “fold change of IC50, HIV-1LPV1μM” value is 5. In [4], the IC50 came out at 31 ± 4 nM and the “fold change of IC50, HIV-1APV5μM” value worked out at 4. In addition, in data set [5], the IC50 is over 1000 nM and the “fold change of IC50, HIV-1SQV5μM” value is on record as over 143. In addition, in data set [6], the IC50 came out at 59 ± 4 nM and the “fold change of IC50, HIV-1IDV5μM” value is on record as 8.

As for `CC(C)(C)NC(=O)[C@@H]1CN(Cc2cccnc2)CCN1C[C@@H](O)C[C@@H](Cc1ccccc1)C(=O)N[C@H]1c2ccccc2C[C@H]1O` [IDV, indinavir], the IC50 is 250 ± 10 nM in [1]; 270 ± 50 nM in data set [2]; over 1000 nM in data set [3]; 200 ± 7 nM in [4]; over 1000 nM in [5]; over 1000 nM in data set [6].

Turning to `CC(C)CN(CC(O)C(Cc1ccccc1)NC(=O)OC1COC2OCCC12)S(=O)(=O)c1ccc2c(c1)OCO2` (stereo not shown) [GRL-98065], the Ki in [7] amounted to 0.014 nM. Also, in data set [8], it took 35.7 µM to reach half-maximal cytotoxicity (CC50 at 7 days). The “factor by which potency against HIV-2 strains is less than against HIV-1LAI” value in [9] is listed as 6-9. The IC50 in data set [10] was 0.2 to 4.5 nM; in [12], 0.2 to 0.5 nM; in [1] it was 2.5 ± 0.3 nM; in data set [2], 2.4 ± 0.8 nM; in data set [3], 7.5 ± 0.3 nM; in data set [4], 32 nM. Further, the IC50 in data set [5] was determined as 6 ± 3 nM; in data set [6], 3.7 ± 0.7 nM. In addition, the “fold increase of drug concentration tolerated by selected virus” value in data set [11] (40 passages in MT-4 cells, start 0.0005 μM) is listed as 1,000. In [11] (after 40 passages in MT-4 cells), the “drug concentration at which selected virus was still propagating” value came out at 0.5 µM. In data set [1], the “fold change of IC50, HIV-1RTV5μM” value was found to be 8. Further, the “fold change of IC50, HIV-1NFV5μM” value in [2] was determined as 8. In addition, the “fold change of IC50, HIV-1LPV1μM” value in data set [3] is listed as 25. Besides, the “fold change of IC50, HIV-1APV5μM” value in [4] came to 107. For the same molecule, in [5], the “fold change of IC50, HIV-1SQV5μM” value is 20. For the same molecule, the “fold change of IC50, HIV-1IDV5μM” value in [6] is 12.

Consider `COC(=O)N[C@H](C(=O)N[C@@H](Cc1ccccc1)[C@@H](O)CN(Cc1ccc(-c2ccccn2)cc1)NC(=O)[C@@H](NC(=O)OC)C(C)(C)C)C(C)(C)C` [ATV, Atazanavir], for which, in [1], the IC50 is 18 ± 8 nM and the “fold change of IC50, HIV-1RTV5μM” value is on record as 4. Further, in data set [2], the IC50 turned out to be 21 ± 6 nM and the “fold change of IC50, HIV-1NFV5μM” value is 5. In addition, in [3], the IC50 worked out at 40 ± 2 nM and the “fold change of IC50, HIV-1LPV1μM” value came to 10. For the same molecule, in [4], the IC50 worked out at 3 ± 1 nM and the “fold change of IC50, HIV-1APV5μM” value was 1. For the same molecule, in data set [5], the IC50 turned out to be 326 ± 1 nM and the “fold change of IC50, HIV-1SQV5μM” value came to 78. Besides, in [6], the IC50 was 60 ± 20 nM and the “fold change of IC50, HIV-1IDV5μM” value is 14.
